Measured values as given in article PMC11578313, “Miniaturized Modular Click Chemistry‐enabled Rapid Discovery of Unique SARS‐CoV‐2 M^pro Inhibitors With Robust Potency and Drug‐like Profile” (Advanced Science, 2024).

Experiments:
[1] = Cytotoxicity assay (MTT) in MRC‐5 cells; conditions: human
Kunming mice = experiment: Subacute toxicity experiment; format: in vivo
Method: The acute and subacute toxicity of C5N17B were assessed in Kunming mice. In the acute toxicity study, one group received an oral dose of 500 mg kg^−1 of C5N17B. In the subacute toxicity study, a different group was administered a lower dose of 50 mg kg^−1 of C5N17B. Each experimental set included a control group that received only the vehicle treatment.
Kunming mice were group housed both during acclimation and the study period. The animal room environment was controlled to maintain specific target conditions, including a temperature range of 20 °C to 25 °C, relative humidity levels between 40% and 70%, and an alternating schedule of artificial light for 12 h followed by 12 h of darkness. The age of Kunming mice in the acute/subacute toxicity study was 3–4 weeks, and the body weights were ≈20 g. All animal experiments related to this study were approved by the ethics committee of Cheeloo College of Medicine (approval No. 230014), Shandong University (Jinan, China) Procedures performed in the studies were guided by the ethical standards of the institution.
A group of Kunming mice (comprising three males and three females) was supplied by the Animal Experimental Center of Shandong University. The mice underwent a 12 h fasting period, followed by oral administration of a suspension containing C5N17B in 0.5% CMC‐Na and 3% DMSO at the concentration of 100 mg mL^−1 to achieve an acute toxicity dose of 500 mg kg^−1. In the subacute toxicity experiment, the test group received 50 mg kg^−1 of C5N17B orally, with another group serving as a control. The experimental group and control group each consist of six mice, with an equal distribution of three males and three females.

in vivo = conditions: ICR, mouse, po
HCoV‐229E = experiment: microbe, parasite or virus in culture; format: cell-based
HCoV‐OC43 = experiment: microbe, parasite or virus in culture; format: cell-based; conditions: Betacoronavirus 1, MRC5, read-out: EC50 ± SD, HCoV‐OC43
in vitro = conditions: rhesus monkey
[2] = system: SARS‐CoV‐2 Delta (hCoV‐19/Korea/KDCA119861/2021); experiment: microbe, parasite or virus in culture; format: cell-based; conditions: Severe acute respiratory syndrome coronavirus 2; Calu‐3; read-out: EC50 ± SD, SARS‐CoV‐2 Delta
[3] = 10 mg/kg, p.o. in combination with ritonavir, p.o. 10 mg kg^−1 with 20 mg kg^−1 ritonavir, ICR mice, n = 3
[4] = male, 10 mg/kg, Mean, C5N17B+Ritonavir, PO 10 mg/kg, mean of 3 mice
[5] = male, 10 mg/kg, Plasma concentration (Calculated Concentration), C5N17B+Ritonavir, PO 10 mg/kg, mouse plasma, individual mice
[6] = male, 10 mg/kg, Plasma concentration, Mean, C5N17B+Ritonavir, PO 10 mg/kg, mean of mice 1#-3#

Cc1cncc(C(=O)N2C[C@H]3CC[C@@H](C2)N3[C@H](c2cccc(F)c2)c2cn(CCc3ccsc3)nn2)c1 [Compound C5N17B]
CC50 at 5 day [1]: > 100 µM | CC50 at 6 day [1]: > 100 µM | body weight compared to the control group, subacute toxicity (Kunming mice; 50 mg kg^−1, 15 days): no significant changes in body weight | examination of vital organs, hematoxylin and eosin‐stained slices (Kunming mice; heart, liver, spleen, lung, kidney, subacute toxicity study): no significant pathological abnormalities | fatalities or abnormal behavior, subacute toxicity (Kunming mice; oral 50 mg kg^−1, Kunming mice): No fatalities or abnormal behavior | Cmax (in vivo; [3]): 2300 ± 162 ng/mL | MRT (in vivo; 10 mg/kg, MRT0‐t, p.o. in combination with ritonavir, p.o. 10 mg kg^−1 with 20 mg kg^−1 ritonavir, ICR mice, n = 3): 3.15 ± 0.456 h | MRT (in vivo; 10 mg/kg, MRT0‐∞, p.o. in combination with ritonavir, p.o. 10 mg kg^−1 with 20 mg kg^−1 ritonavir, ICR mice, n = 3): 4.88 ± 2.7 h | Tmax (in vivo; [3]): 2.08 ± 1.88 h | half-life (in vivo; 10 mg/kg, t1/2, p.o. in combination with ritonavir, p.o. 10 mg kg^−1 with 20 mg kg^−1 ritonavir, ICR mice, n = 3): 3.14 ± 2.06 h | AUC (in vivo; AUC0‐t, p.o. in combination with ritonavir, p.o. 10 mg kg^−1 with 20 mg kg^−1 ritonavir, ICR mice, n = 3): 11500 ng·h/mL | AUC(0-t) (in vivo; male, 10 mg/kg, AUC0-t, C5N17B+Ritonavir, PO 10 mg/kg, individual mice 1#-3#): 9690 ng·h/mL | AUC(0-t) (in vivo; male, 10 mg/kg, AUC0-t, Mean, C5N17B+Ritonavir, PO 10 mg/kg, mean of 3 mice): 11500 ng·h/mL | AUC(0-inf) (in vivo; male, 10 mg/kg, AUC0-∞, C5N17B+Ritonavir, PO 10 mg/kg, individual mice 1#-3#): 10400 ng·h/mL | AUC(0-inf) (in vivo; male, 10 mg/kg, AUC0-∞, Mean, C5N17B+Ritonavir, PO 10 mg/kg, mean of 3 mice): 14200 ng·h/mL | AUC(0-inf) (in vivo; male, 10 mg/kg, AUCINF_obs, C5N17B+Ritonavir, po 10 mg/kg, non-compartmental output, individual mice): 10400 ng·h/mL | AUC(0-inf) (in vivo; male, 10 mg/kg, AUCINF_pred, C5N17B+Ritonavir, po 10 mg/kg, based on predicted Clast, individual mice): 10800 ng·h/mL | AUC (in vivo; male, 10 mg/kg, AUCall, C5N17B+Ritonavir, po 10 mg/kg, non-compartmental output, individual mice): 9690 ng·h/mL | AUC(0-t) (in vivo; male, 10 mg/kg, AUClast, C5N17B+Ritonavir, po 10 mg/kg, non-compartmental output, individual mice): 9690 ng·h/mL | CL/F (in vivo; male, 10 mg/kg, Cl_F_obs, C5N17B+Ritonavir, po 10 mg/kg, non-compartmental output, individual mice): 16 mL/min/kg | Cmax (in vivo; male, 10 mg/kg, C5N17B+Ritonavir, PO 10 mg/kg, individual mice 1#-3#): 2270 ng/mL | Cmax (in vivo; male, 10 mg/kg, C5N17B+Ritonavir, po 10 mg/kg, non-compartmental output, individual mice): 2270 ng/mL | Cmax (in vivo; [4]): 2300 ng/mL | MRT last (in vivo; male, 10 mg/kg, MRT0-t, C5N17B+Ritonavir, PO 10 mg/kg, individual mice 1#-3#): 2.62 h | MRT last (in vivo; male, 10 mg/kg, MRT0-t, Mean, C5N17B+Ritonavir, PO 10 mg/kg, mean of 3 mice): 3.15 h | MRT inf (in vivo; male, 10 mg/kg, MRT0-∞, Mean, C5N17B+Ritonavir, PO 10 mg/kg, mean of 3 mice): 4.88 h | MRT last (in vivo; male, 10 mg/kg, MRTlast, C5N17B+Ritonavir, po 10 mg/kg, non-compartmental output, individual mice): 2.62 h | concentration at 5 min (in vivo; male, 10 mg/kg, Plasma concentration (Calculated Concentration), C5N17B+Ritonavir, PO 10 mg/kg, mouse plasma, 5 min (5min), individual mice): 680 ng/mL | concentration at 0.5 h (in vivo; male, 10 mg/kg, Plasma concentration (Calculated Concentration), C5N17B+Ritonavir, PO 10 mg/kg, mouse plasma, 0.5 h (30min), individual mice): 2280 ng/mL | concentration at 1 h (in vivo; [5]): 2210 ng/mL | concentration at 2 h (in vivo; [5]): 1910 ng/mL | concentration at 4 h (in vivo; [5]): 1180 ng/mL | concentration at 5 min (in vivo; male, 10 mg/kg, Plasma concentration, Mean, C5N17B+Ritonavir, PO 10 mg/kg, 5 min, mean of mice 1#-3#): 660 ng/mL | concentration at 0.5 h (in vivo; male, 10 mg/kg, Plasma concentration, Mean, C5N17B+Ritonavir, PO 10 mg/kg, 0.50 h, mean of mice 1#-3#): 1740 ng/mL | concentration at 1 h (in vivo; [6]): 1970 ng/mL | concentration at 2 h (in vivo; [6]): 2110 ng/mL | concentration at 4 h (in vivo; [6]): 1750 ng/mL | concentration at 6 h (in vivo; male, 10 mg/kg, Plasma concentration, Mean, C5N17B+Ritonavir, PO 10 mg/kg, 6 h, mean of mice 1#-3#): 1040 ng/mL | concentration at 8 h (in vivo; male, 10 mg/kg, Plasma concentration, Mean, C5N17B+Ritonavir, PO 10 mg/kg, 8 h, mean (1# BQL)): 490 ng/mL | half-life (in vivo; male, 10 mg/kg, T1/2, Mean, C5N17B+Ritonavir, PO 10 mg/kg, mean of 3 mice): 3.14 h | Tmax (in vivo; [4]): 2.08 h | EC50 (HCoV‐229E; Human coronavirus 229E, MRC5, read-out: EC50 ± SD, HCoV‐229E): > 100 µM | EC50 ± SD, HCoV‐229E (HCoV‐229E; MRC‐5): failed to inhibit | EC50 (HCoV‐OC43): 2.71 ± 0.51 µM | CC50 (in vitro): > 100 µM | EC50 [2]: 0.154 ± 0.019 µM
